Paper PMC12070228, “Investigations of Enteric-Coated Tablet Propyl Gallate-Induced Nephrotoxicity in Beagles as well as Human and Dog Renal Proximal Tubule Epithelial Cells” (ACS Pharmacology & Translational Science, 2025)

How the values were obtained:
beagles = test: Follow-up 4-week study 003: EC tablets vs PG alone in gelatin capsule, nephrotoxicity; format: in vivo, beagle dog; settings: dogs, target PG 200 mg/kg/day once daily for 26 days, data not shown
dog RPTECs [1] = test: Cell Titer Glo cell viability assay; format: cell-based
Experimental: (§1) Frozen RPTECs vials were removed from liquid nitrogen storage and placed in a 37 °C water bath until the contents were completely thawed. The cells were gently resuspended and dispensed into a cell culture flask at a seeding density of ∼7500 cells/cm^2. The flask was placed in a 37 °C, 5% CO2 incubator. Cell cultures were given fresh medium the following morning and then every other day until the cell culture was approximately 90% confluent. When the cell culture was 90% confluent, medium was removed and the cells were rinsed with warmed PBS. Cells were harvested and split into new flasks based on a cell density of 7500 cells/cm^2. Cells were incubated at 37 °C for 3 days, with fresh medium added each day. Cells were harvested and diluted with growth medium to a density of 200,000 cells/mL. 100 μL of cell suspension per well (20,000 cells/well) was added to a clear-bottom 96-well microplate for luminescence assays. The plated cells were incubated in the 37 °C incubator for 3 days.
(§2) Each test compound (PG, GA, 4OMPG and 4OMGA) was initially reconstituted using DMSO at a concentration of 250 mg/mL. Serial dilutions of each compound were performed to reach concentrations of 4000 μM, 2000 μM, 1000 μM, 500 μM, 250 μM, 125 μM, 62.5 μM, 31.3 μM using warmed fresh supplemented medium with 0.4% (v/v) DMSO for all concentration levels. 100 μL of media containing the compound solution was added to the cells. Final concentrations of the compounds were 2000 μM, 1000 μM, 500 μM, 250 μM, 125 μM, 62.5 μM, 31.3 μM, 15.7 μM. […]
(§3) Cell media were removed and cells were washed twice with 200 μL of PBS buffer per well. […] The plate was gently shaken and incubated in the dark for 30 min and luminescence was measured using a PerkinElmer VICTOR X3 plate reader. […] Luminescence was measured using a PerkinElmer VICTOR X3 plate reader.
(§4) For cell-based assays, data was normalized to the negative control. Cell viability and GSH level were expressed as Cell viability or GSH level=Luminescence(each well)/Luminescence(average of DMSO negative control)

human RPTECs [2] = test: Cell Titer Glo cell viability assay; format: cell-based; settings: RPTEC, 48 h exposure, estimated
Experimental: as §1, §2, §3, §4

dog RPTECs [3] = test: GSH-Glo glutathione assay; format: cell-based
Experimental: as §1
(§5) Each test compound (PG, GA, 4OMPG and 4OMGA) was initially reconstituted using DMSO at a concentration of 250 mg/mL. Serial dilutions of each compound were performed to reach concentrations of 4000 μM, 2000 μM, 1000 μM, 500 μM, 250 μM, 125 μM, 62.5 μM, 31.3 μM using warmed fresh supplemented medium with 0.4% (v/v) DMSO for all concentration levels. 100 μL of media containing the compound solution was added to the cells. Final concentrations of the compounds were 2000 μM, 1000 μM, 500 μM, 250 μM, 125 μM, 62.5 μM, 31.3 μM, 15.7 μM. AZ13599185 (tubulysin, 100 or 500 ng/mL) or cisplatin (30 μg/mL) and buthionine sulfoximine (BSO, 200 μM) were used as positive controls for CTG and GSH assays, respectively. 0.2% (v/v) DMSO in medium was used as the control for both assays, corrsponding to the final cocnetration of DMSO in the well. Three replicates for each compound at each concentration were prepared. Six replicates of positive or negative controls were prepared. Cells were incubated at 37 °C for approximately 48 h.
(§6) Cell media were removed and cells were washed twice with 200 μL of PBS buffer per well. CTG and GSH assay reagents were added to the wells and the assays were performed following the protocols of the Promega assay kits. Briefly, to perform the CTG assay, 100 μL of CTG solution was added into each well. The plate was gently shaken and incubated in the dark for 30 min and luminescence was measured using a PerkinElmer VICTOR X3 plate reader. To perform the GSH assay, luciferin-NT substrate and glutathione S-transferase were mixed into the GSH-GLo solution. 100 μL of the mixed solution was added into each well. The plate was gently shaken and incubated in the dark for at least 30 min. 100 μL of Luciferin Detection Reagent was added per well. The plate was gently shaken and incubated in the dark for at least 15 min. Luminescence was measured using a PerkinElmer VICTOR X3 plate reader.
as §4

human RPTECs [4] = test: GSH-Glo glutathione assay; format: cell-based
Experimental: as §1, §5, §6, §4

[5] = PG pharmacokinetics in healthy volunteers, clinical study NCT03362593 (validated LC-MS/MS); format: in vivo; settings: human, plasma, oral EC MEDI7219 tablets, PG 200, 400 or 800 mg
Experimental: The total run time was 5.5 min.
The targeted quantitation of PG and phase-I/II metabolites was conducted using peak area ratio of analytes and internal standards in MultiQuant software (SCIEX).
Healthy volunteers participating in the clinical study NCT03362593 received single or multiple ascending doses of MEDI7219 tablets. Healthy volunteers received EC MEDI7219 tablets containing 200, 400, or 800 mg PG per tablet. The clinical plasma samples were analyzed using the validated method described above. […] After oral administration of tablets containing PG, the T max of PG was reached around 3–4 h postdose.

[6] = no reference given; cited from earlier work
[7] = Exposure comparison of PG and phase-I and phase-II metabolites in dog and human plasma; settings: oral EC MEDI7219 tablets; samples through 8 h; human PG 800 mg (N = 8), dog PG 200 mg/kg/day (N = 6)
Experimental: Dog blood was collected via jugular vein in potassium (K2) EDTA tubes and processed to plasma. Samples were centrifuged at approximately 3000 rpm for 5 min at approximately 4 °C within 30 min of collection. Plasma samples were acidified with 1% (v/v) formic acid (FA) to avoid degradation of PG and metabolites in plasma within 20 min of the start of centrifugation and then stored frozen (≤-60 °C). Acidified plasma was extracted using internal standard-spiked solution (100 mM ammonium bicarbonate: acetonitrile = 1:4). Samples were then centrifuged to collect supernatant, followed by drying to completion. The dried samples were reconstituted with 200 uL of 0.1% (v/v) formic acid in water. Samples were vortexed and centrifuged before injection. In order to assess potential impact of hemolysis on qualification of PG and its metabolites, hemolyzed plasma was prepared by spiking fully hemolyzed whole blood at an indicated percentage into plasma.
Separations were conducted on a reversed-phase column (Phenomenex, Kinetex F5, 2.6 μm 100 Å, 100 × 4.6 mm) at a flow rate of 0.7 mL/min at 40 °C. Mobile phase A was 0.1% formic acid in water and mobile phase B was 0.1% formic acid in methanol. The samples were analyzed on a SCIEX 6500+ QTRAP under negative ESI mode. The total run time was 5.5 min. Eight calibration standards and three quality control (LQC, MQC and HQC) samples were used for quantification.
The primary metabolites of PG were measured in dog and human plasma following oral administration of EC MEDI7219 tablets to examine a potential mechanism of the PG-mediated renal toxicity in dog and its possible translatability to humans. Plasma concentrations of PG, its phase-I metabolites GA and 4OMGA and phase-II glucuronide and glutathione conjugates were measured. The human and dog samples, collected through 8 h after administration, were analyzed and the results were compared (Figure , Figure S5). Based on allometric scaling method the highest daily dose administered in humans was approximately 8-fold less compared with the dose level tested in dogs.
Human (H) data is in black. Dog (D) data is in red (study 002). Concentration (mM) is in log10 scale. Data was normalized to PG dose (mg/kg/day). N = 8 for human (PG dosed at 800 mg with MEDI7219 tablets). N = 6 for dogs (PG dosed at 200 mg/kg/day). Below LLOQ values were set to 1/2 LLOQ for the calculation.

[8] = ~48 h exposure, normalized to DMSO control

## CCCOC(=O)c1cc(O)c(O)c(O)c1 [PG, propyl gallate]
beagles
  Nephrotoxicity / kidney injury: did not result in nephrotoxicity
Dog RPTECs [1]; Canis lupus familiaris, RPTEC, dog RPTECs, 48 h exposure, estimated
  EC50: ~46.5 µM
Dog RPTECs [1]; human EC50 vs dog EC50, cell viability
  Relative difference in sensitivity between human and dog RPTECs: ~33 fold
Human RPTECs [2]
  EC50: ~1530 µM
Dog RPTECs [3]; ~48 h, high concentrations
  GSH levels at high concentrations: reduction of GSH levels
Dog RPTECs [3]; [8]
  Glutathione (GSH) levels: not in dog cells
Human RPTECs [4]; ~48 h, high concentrations
  GSH levels at high concentrations: reduction of GSH levels
Human RPTECs [4]; [8]
  Glutathione (GSH) levels: induced
[5]
  Tmax: 3 to 4 h
[6]
  Log P: 2.13
[7]
  Plasma exposure, humans compared with dogs: comparable between the two species
